{"source": "ChEMBL document CHEMBL1201862", "about": "“PubChem BioAssay data set” (2004)", "key": {"[1]": {"assay": "cytotoxicity in COV362 ovarian cancer cells, dose response, cytotoxicity control for PAX8 inhibitor project, cell-based, plate reader, dry powder, SA12 (AID 743144)", "type": "functional"}, "Paired box protein Pax-8": {"target": "Paired box protein Pax-8 (Homo sapiens, UniProt Q06710)", "sequence (Q06710 whole entry)": "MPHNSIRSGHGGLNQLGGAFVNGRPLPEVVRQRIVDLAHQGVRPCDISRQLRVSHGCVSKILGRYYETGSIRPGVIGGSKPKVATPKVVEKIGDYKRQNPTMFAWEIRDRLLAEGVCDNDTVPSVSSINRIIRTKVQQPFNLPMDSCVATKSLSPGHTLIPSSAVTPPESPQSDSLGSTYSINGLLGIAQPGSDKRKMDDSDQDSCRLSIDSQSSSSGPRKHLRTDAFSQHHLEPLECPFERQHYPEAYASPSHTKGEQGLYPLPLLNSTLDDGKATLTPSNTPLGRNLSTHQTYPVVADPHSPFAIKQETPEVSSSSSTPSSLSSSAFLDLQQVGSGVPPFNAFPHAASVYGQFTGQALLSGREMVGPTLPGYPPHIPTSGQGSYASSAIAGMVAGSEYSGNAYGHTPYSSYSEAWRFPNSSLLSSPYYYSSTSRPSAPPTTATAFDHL", "assay": "inhibitors of PAX8-driven TPO luciferase reporter, dose response, RMG-I cells, cherry-pick (AID 687027);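 further: luciferase reporter driven by Pax8 target thyroperoxidase promoter measured by SteadyGlo luminescence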", "type": "functional, cell-based"}, "[2]": {"assay": "Luminescence-based dose response cell-based high throughput screening assay for cytotoxic compounds using the IEC-6 intestinal epithelial cell line. [Related pubchem assays: 1858 (Summary AID.), 1825 (Counterscreen.), 1907 (Confirmation screen.)]", "type": "functional"}, "Beta-galactosidase": {"target": "Beta-galactosidase (Escherichia coli, UniProt Q8VNN2)", "sequence (Q8VNN2 whole entry)": "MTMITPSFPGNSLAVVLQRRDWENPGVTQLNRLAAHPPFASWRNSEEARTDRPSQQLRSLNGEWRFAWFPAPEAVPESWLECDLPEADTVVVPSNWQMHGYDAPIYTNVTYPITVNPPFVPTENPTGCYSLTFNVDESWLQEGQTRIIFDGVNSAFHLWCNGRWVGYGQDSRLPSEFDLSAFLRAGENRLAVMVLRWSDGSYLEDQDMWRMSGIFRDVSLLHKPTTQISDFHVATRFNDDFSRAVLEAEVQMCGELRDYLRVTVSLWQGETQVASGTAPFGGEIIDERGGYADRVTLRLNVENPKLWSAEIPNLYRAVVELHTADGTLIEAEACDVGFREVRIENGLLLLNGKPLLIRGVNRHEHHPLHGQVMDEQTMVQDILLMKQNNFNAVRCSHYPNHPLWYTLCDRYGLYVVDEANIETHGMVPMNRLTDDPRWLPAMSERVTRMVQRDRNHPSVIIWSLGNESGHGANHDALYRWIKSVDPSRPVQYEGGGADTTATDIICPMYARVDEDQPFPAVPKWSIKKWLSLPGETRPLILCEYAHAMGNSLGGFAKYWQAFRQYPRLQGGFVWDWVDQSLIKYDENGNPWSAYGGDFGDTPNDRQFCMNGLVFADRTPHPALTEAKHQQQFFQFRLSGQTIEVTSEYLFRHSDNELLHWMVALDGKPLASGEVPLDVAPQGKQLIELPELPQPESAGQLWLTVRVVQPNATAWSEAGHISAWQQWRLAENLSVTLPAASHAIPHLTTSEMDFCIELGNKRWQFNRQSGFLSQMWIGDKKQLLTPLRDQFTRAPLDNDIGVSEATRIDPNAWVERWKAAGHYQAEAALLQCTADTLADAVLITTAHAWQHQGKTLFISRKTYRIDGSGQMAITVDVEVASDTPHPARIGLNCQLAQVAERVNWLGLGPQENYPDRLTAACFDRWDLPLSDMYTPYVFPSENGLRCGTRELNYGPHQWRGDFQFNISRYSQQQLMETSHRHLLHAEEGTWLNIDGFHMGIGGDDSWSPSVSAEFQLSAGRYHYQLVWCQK", "assay": "PubChem AID 485352", "type": "functional"}, "BJ [3]": {"system": "BJ", "assay": "cytotoxicity toward Ras-transformed BJeLR fibroblasts, dose response, cell-based, alamar blue fluorescence, cherrypicked samples (AID 2631)", "type": "functional", "details": "Homo sapiens"}, "Streptococcus": {"system": "Streptococcus", "assay": "Group A Streptococcus viability loss, dose response, counter-screen for streptokinase expression inhibitor project, luminescence, BacTiterGlo (AID 1915);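 further: potency for reduction of bacterial viability or growth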", "type": "functional, organism-based"}, "[4]": {"assay": "cytotoxicity toward DRD oncogenic fibroblasts, dose response, cell-based, non-viral oncogenic, luminescence (AID 1934)", "type": "functional", "details": "Homo sapiens"}, "[5]": {"assay": "cytotoxicity in HEK-293T cells, dose response, cytotoxicity control for TCR NF-kB inhibitor project, luminescence, T-cell screen hits (AID 489026);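 further: cells exposed to compound about 14 hours before the viability readout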", "type": "functional, cell-based"}, "Streptokinase A": {"target": "T1, Streptokinase A (Streptococcus pyogenes serotype M1, UniProt P10520)", "T1 sequence (P10520 whole entry)": "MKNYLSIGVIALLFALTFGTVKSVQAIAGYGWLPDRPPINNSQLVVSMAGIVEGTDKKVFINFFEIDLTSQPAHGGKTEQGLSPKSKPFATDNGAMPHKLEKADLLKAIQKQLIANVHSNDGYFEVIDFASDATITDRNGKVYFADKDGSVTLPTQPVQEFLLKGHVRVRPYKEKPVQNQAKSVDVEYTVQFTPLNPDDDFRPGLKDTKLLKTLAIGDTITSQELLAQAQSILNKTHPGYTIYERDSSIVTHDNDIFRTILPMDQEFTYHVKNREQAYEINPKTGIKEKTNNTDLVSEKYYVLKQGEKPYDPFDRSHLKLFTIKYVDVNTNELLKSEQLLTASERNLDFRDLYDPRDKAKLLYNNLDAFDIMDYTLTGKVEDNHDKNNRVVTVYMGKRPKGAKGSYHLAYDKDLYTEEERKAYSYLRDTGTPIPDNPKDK", "assay": "S. pyogenes streptokinase expression inhibitors, potency, dose response, plasminogen activation absorbance, OD405 (AID 1914);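 further: secreted streptokinase activity via plasminogen activation per viability signal from cell pellet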", "type": "functional, Streptococcus pyogenes M1 GAS"}, "[6]": {"assay": "cytotoxicity in COV434 cells, dose response, cytotoxicity control for PAX8 inhibitor project, cell-based, plate reader, dry powder, SA7 (AID 743145)", "type": "functional"}, "BJ [7]": {"system": "BJ", "assay": "cells", "type": "functional, cell-based", "details": "Homo sapiens"}, "[8]": {"target": "T2, Type-1 angiotensin II receptor (Homo sapiens, UniProt P30556)", "T2 sequence (P30556 whole entry)": "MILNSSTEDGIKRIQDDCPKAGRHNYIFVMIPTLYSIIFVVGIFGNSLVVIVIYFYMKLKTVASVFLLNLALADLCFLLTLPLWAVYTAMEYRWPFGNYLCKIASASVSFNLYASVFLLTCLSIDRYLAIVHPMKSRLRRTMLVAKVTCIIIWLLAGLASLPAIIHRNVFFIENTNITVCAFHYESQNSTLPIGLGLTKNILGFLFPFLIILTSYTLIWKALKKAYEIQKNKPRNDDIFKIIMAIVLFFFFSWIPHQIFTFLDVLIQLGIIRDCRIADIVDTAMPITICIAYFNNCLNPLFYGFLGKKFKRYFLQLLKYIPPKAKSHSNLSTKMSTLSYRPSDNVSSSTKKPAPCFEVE", "assay": "AT1 receptor antagonists, dose response, selectivity assay for APJ receptor antagonist project, cell-based, uHTS hits (AID 463214);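 further: antagonist potency against angiotensin II stimulated AT1 response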", "type": "functional"}, "[9]": {"assay": "A2780 ovarian cancer cell cytotoxicity, dose response, cytotoxicity control, plate reader, dry powder samples (AID 743046)", "type": "functional, cell-based"}, "[10]": {"assay": "IGROV1 ovarian cancer cell cytotoxicity, dose response, PAX8 inhibitor project, plate reader, dry powder samples (AID 743043)", "type": "functional, cell-based", "details": "IGROV-1"}, "[11]": {"assay": "non-specific cell cytotoxicity, dose response, cytotoxicity control for PAX8 inhibitor project, plate reader, dry powder samples (AID 743021)", "type": "functional, cell-based"}, "[12]": {"assay": "IOSE-T80 ovarian epithelial cell cytotoxicity, dose response, cytotoxicity control for PAX8 inhibitor project, plate reader, dry powder samples (AID 743045)", "type": "functional, cell-based"}, "BJ [13]": {"system": "BJ", "assay": "cytotoxicity toward BJ-TERT fibroblasts, dose response, cell-based, RAS-independent, luminescence (AID 1933)", "type": "functional", "details": "Homo sapiens"}, "[14]": {"system": "Streptococcus sp. 'group A'", "assay": "growth inhibition of control SK(-) GAS strain, dose response, counter-screen for streptokinase expression inhibitor project, luminescence, kanamycin, BacTiterGlo, confirmation (AID 1900)", "type": "functional, organism-based"}, "[15]": {"assay": "cytotoxicity in OV-90 ovarian cancer cells, dose response, PAX8 inhibitor project, cell-based, plate reader, dry powder, SA8 (AID 743149)", "type": "functional"}, "[16]": {"assay": "PAX2 cell-based inhibition, dose response, selectivity assay for PAX8 inhibitor project, plate reader, dry powder samples (AID 743048);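 further: HEK293 cells carrying a WT1 promoter luciferase reporter driven by expressed Pax2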", "type": "functional"}, "HEK293 [17]": {"system": "HEK293", "assay": "SAR Analysis of small molecule inhibitors of both B-cell and T-cell specific antigen receptor-induced NF-kB activation in a HEK-293T cell line using a luminescence assay. [Related pubchem assays (depositor defined):AID435003, AID435022, AID465, AID489019, AID489029]", "type": "functional, cell-based", "details": "Homo sapiens"}, "Jurkat": {"system": "Jurkat", "assay": "SAR Analysis of small molecule inhibitors of both B-cell and T-cell specific antigen receptor-induced NF-kB activation in a Jurkat cell line using a luminescence assay. [Related pubchem assays (depositor defined):AID435003, AID435022, AID465, AID489029]", "type": "functional, cell-based", "details": "Homo sapiens"}, "BJ [18]": {"system": "BJ", "assay": "cytotoxicity toward BJ-TERT-LT-ST fibroblasts, dose response, cell-based, RAS-independent, luminescence (AID 1935);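 further: BJ fibroblasts immortalized with TERT plus LT and ST oncogenes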", "type": "functional", "details": "Homo sapiens"}, "[19]": {"assay": "cytotoxicity in OVCAR4 cells, dose response, cytotoxicity control for PAX8 inhibitor project, cell-based, plate reader, dry powder, SA11 (AID 743150)", "type": "functional", "details": "OVCAR-4"}, "HEK293 [20]": {"system": "HEK293", "assay": "cytotoxicity in HEK293T NF-kB-Luc cells, SAR follow-up, cytotoxicity control for NF-kB activator project, cell-based, resazurin fluorescence (AID 493251)", "type": "functional", "details": "Homo sapiens"}, "[21]": {"assay": "cytotoxicity dependent on PAX8, dose response, cell-based, plate reader, dry powder (AID 743049)", "type": "functional"}, "CAAX prenyl protease 2 [22]": {"target": "T3, CAAX prenyl protease 2 (Saccharomyces cerevisiae S288c, UniProt Q03530)", "T3 sequence (Q03530 whole entry)": "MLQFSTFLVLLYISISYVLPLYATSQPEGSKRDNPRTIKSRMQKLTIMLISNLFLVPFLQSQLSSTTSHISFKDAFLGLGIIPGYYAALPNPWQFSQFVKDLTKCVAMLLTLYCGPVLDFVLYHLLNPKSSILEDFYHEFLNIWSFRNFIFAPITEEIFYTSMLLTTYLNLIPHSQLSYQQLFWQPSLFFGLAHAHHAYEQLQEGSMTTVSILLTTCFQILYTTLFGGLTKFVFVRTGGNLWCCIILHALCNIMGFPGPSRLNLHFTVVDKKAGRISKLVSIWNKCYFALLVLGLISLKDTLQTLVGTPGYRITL", "type": "biochemical"}, "CAAX prenyl protease 2 [23]": {"target": "T3, CAAX prenyl protease 2", "assay": "yeast Rce1 CaaX protease inhibitors, dose response, biochemical, plate reader, dry powder retest (AID 588851)"}, "CAAX prenyl protease 2 [24]": {"target": "CAAX prenyl protease 2 (Homo sapiens, UniProt Q9Y256)", "sequence (Q9Y256 whole entry)": "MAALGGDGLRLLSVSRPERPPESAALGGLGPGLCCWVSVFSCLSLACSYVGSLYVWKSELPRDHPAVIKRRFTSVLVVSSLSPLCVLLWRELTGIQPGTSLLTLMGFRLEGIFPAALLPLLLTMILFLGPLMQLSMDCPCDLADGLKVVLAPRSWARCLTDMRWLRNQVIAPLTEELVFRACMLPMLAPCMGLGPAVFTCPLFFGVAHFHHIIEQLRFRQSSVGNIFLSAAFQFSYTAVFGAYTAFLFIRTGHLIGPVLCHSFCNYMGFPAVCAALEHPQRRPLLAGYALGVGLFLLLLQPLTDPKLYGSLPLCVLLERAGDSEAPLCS", "assay": "human Rce1 protease inhibitors, dose response, biochemical, plate reader, dry powder samples (AID 588848)"}}, "note": "Calls of active or inactive are those of the source.", "data": [{"compound": "Cc1ccc2cccc(NS(=O)(=O)c3ccccc3)c2n1", "values": [{"measurement": "AC50", "setting": "[1]", "value": "8.75 µM (active)"}, {"measurement": "AC50", "setting": "Paired box protein Pax-8", "value": "5.74 µM (active)"}, {"measurement": "IC50", "setting": "[2]", "value": "0.589 µM (active)"}, {"measurement": "EC50", "setting": "Beta-galactosidase", "value": "> 40 µM (inactive)"}, {"measurement": "EC50", "setting": "BJ [3]", "value": "5.74 µM (active)"}, {"measurement": "EC50", "setting": "Streptococcus", "value": "> 150 µM (not active)"}, {"measurement": "EC50", "setting": "[4]", "value": "21.6 µM (active)"}, {"measurement": "IC50", "setting": "[5]", "value": "> 80 µM (inactive)"}, {"measurement": "EC50", "setting": "Streptokinase A", "value": "> 150 µM (not active)"}, {"measurement": "AC50", "setting": "[6]", "value": "10.7 µM (active)"}, {"measurement": "EC50", "setting": "BJ [7]", "value": "17.8 µM (active)"}, {"measurement": "IC50", "setting": "[8]", "value": "2.35 µM (active)"}, {"measurement": "AC50", "setting": "[9]", "value": "20.5 µM (active)"}, {"measurement": "AC50", "setting": "[10]", "value": "14 µM (active)"}, {"measurement": "AC50", "setting": "[11]", "value": "44 µM (active)"}, {"measurement": "AC50", "setting": "[12]", "value": "17.3 µM (active)"}, {"measurement": "EC50", "setting": "BJ [13]", "value": "37.9 µM (active)"}, {"measurement": "EC50", "setting": "[14]", "value": "5.1 µM (active)"}, {"measurement": "AC50", "setting": "[15]", "value": "5.65 µM (active)"}, {"measurement": "AC50", "setting": "[16]", "value": "49.5 µM (active)"}, {"measurement": "IC50", "setting": "HEK293 [17]", "value": "> 79 µM (inactive)"}, {"measurement": "IC50", "setting": "Jurkat", "value": "1.21 µM (active)"}, {"measurement": "EC50", "setting": "BJ [18]", "value": "> 150 µM (not active)"}, {"measurement": "AC50", "setting": "[19]", "value": "21.1 µM (active)"}, {"measurement": "IC50", "setting": "HEK293 [20]", "value": "> 80 µM (inactive)"}, {"measurement": "AC50", "setting": "[21]", "value": "15.6 µM (active)"}]}, {"compound": "CC(C)c1c(C(=O)N/N=C/c2c[nH]c3ccccc23)nnn1-c1nonc1N", "values": [{"measurement": "AC50", "setting": "CAAX prenyl protease 2 [22]", "value": "0.298 µM (active)"}, {"measurement": "AC50", "setting": "CAAX prenyl protease 2 [23]", "value": "3.14 µM (active)"}, {"measurement": "AC50", "setting": "CAAX prenyl protease 2 [24]", "value": "29.3 µM (active)"}]}]}
